Results: PMC12951562, “SH2scan: Mapping SH2 Domain-Ligand Binding Selectivity for Inhibitors and Degraders” (Journal of Medicinal Chemistry, 2026)
Non-standard residues stand in square brackets, D forms with d. Residues, ends and D or L forms follow the SMILES beside them. pY = N[C@@H](Cc1ccc(OP(=O)(O)O)cc1)C(=O)O

Columns and labels:
Experiment in all cases: biochemical
Format in all cases: binding
GRB14 = molecular target: T1, GRB14 (Homo sapiens, UniProt Q14449)
T1 construct: the DNA-tagged SH2 domain concentrations used in this study were <0.1 nM; made in house; host or cells: HEK293 (transient transfection; unpurified extract)
T1 sequence (Q14449 439-535 limits assumed): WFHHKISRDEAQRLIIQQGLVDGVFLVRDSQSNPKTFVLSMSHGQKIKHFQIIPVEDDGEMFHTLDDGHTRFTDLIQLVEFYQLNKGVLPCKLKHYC

PLCG2(SH2dom.N-term.) = molecular target: T2, PLCG2(SH2dom.N-term.) (Homo sapiens, UniProt P16885)
T2 construct: SH2dom.N-term. denotes SH2 domain closest to N-terminus of protein; made in house; host or cells: HEK293 (transient transfection, unpurified extract)
T2 sequence (P16885 532-635 limits assumed): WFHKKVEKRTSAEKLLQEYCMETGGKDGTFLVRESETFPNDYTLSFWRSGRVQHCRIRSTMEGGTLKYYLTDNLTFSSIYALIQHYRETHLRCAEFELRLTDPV

CRK = molecular target: T3, CRK (Homo sapiens, UniProt P46108)
T3 construct: the DNA-tagged SH2 domain concentrations used in this study were <0.1 nM; made in house; host or cells: HEK293 (transient transfection; unpurified extract)

CSK = molecular target: T4, CSK (Homo sapiens, UniProt P41240)
T4 construct: the DNA-tagged SH2 domain concentrations used in this study were <0.1 nM; made in house; host or cells: HEK293 (transient transfection; unpurified extract)
T4 sequence (P41240 82-171 limits assumed): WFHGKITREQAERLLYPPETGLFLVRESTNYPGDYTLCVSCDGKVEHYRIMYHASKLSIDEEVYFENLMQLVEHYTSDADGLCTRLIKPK

SHIP2 = molecular target: T5, SHIP2 (Homo sapiens, UniProt O15357)
T5 construct: made in house; host or cells: HEK293 (transient transfection), unpurified extract
T5 sequence (O15357 1-1258): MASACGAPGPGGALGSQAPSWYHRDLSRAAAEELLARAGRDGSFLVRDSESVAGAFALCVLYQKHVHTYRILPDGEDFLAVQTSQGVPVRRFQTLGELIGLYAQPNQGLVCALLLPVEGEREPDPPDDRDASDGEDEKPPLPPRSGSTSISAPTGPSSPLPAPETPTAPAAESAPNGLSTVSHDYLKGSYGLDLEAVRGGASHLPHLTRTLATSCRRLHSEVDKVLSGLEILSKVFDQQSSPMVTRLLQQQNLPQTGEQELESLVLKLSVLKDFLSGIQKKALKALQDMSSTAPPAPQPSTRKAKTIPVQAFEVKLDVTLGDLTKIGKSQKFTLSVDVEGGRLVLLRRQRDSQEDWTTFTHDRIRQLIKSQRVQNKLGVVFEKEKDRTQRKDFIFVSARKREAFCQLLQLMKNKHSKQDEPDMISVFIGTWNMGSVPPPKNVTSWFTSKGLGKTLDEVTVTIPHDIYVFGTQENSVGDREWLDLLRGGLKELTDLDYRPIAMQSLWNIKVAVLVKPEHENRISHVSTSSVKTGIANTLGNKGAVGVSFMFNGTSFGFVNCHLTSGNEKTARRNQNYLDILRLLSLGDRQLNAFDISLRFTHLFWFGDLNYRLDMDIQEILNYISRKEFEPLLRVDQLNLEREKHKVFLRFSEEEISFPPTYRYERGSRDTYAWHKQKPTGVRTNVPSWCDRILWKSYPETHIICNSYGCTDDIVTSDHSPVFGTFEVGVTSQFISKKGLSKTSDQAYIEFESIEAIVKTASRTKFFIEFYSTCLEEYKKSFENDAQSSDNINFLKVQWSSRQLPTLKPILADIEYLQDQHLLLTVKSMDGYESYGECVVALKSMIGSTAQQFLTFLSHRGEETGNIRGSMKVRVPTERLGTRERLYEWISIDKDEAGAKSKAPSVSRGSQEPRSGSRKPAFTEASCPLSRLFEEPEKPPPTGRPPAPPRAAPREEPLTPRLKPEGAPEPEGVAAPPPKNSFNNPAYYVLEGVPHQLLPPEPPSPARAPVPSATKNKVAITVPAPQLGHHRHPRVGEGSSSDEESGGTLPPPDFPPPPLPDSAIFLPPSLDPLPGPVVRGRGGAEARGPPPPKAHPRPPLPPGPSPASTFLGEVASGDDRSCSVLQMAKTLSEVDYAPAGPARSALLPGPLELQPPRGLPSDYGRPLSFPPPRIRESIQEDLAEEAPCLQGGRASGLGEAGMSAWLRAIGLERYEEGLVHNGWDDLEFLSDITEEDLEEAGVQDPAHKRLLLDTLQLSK

SHIP1 = molecular target: T6, SHIP1 (Homo sapiens, UniProt Q92835)
T6 construct: made in house; host or cells: HEK293 (transient transfection), unpurified extract
T6 sequence (Q92835 1-1189): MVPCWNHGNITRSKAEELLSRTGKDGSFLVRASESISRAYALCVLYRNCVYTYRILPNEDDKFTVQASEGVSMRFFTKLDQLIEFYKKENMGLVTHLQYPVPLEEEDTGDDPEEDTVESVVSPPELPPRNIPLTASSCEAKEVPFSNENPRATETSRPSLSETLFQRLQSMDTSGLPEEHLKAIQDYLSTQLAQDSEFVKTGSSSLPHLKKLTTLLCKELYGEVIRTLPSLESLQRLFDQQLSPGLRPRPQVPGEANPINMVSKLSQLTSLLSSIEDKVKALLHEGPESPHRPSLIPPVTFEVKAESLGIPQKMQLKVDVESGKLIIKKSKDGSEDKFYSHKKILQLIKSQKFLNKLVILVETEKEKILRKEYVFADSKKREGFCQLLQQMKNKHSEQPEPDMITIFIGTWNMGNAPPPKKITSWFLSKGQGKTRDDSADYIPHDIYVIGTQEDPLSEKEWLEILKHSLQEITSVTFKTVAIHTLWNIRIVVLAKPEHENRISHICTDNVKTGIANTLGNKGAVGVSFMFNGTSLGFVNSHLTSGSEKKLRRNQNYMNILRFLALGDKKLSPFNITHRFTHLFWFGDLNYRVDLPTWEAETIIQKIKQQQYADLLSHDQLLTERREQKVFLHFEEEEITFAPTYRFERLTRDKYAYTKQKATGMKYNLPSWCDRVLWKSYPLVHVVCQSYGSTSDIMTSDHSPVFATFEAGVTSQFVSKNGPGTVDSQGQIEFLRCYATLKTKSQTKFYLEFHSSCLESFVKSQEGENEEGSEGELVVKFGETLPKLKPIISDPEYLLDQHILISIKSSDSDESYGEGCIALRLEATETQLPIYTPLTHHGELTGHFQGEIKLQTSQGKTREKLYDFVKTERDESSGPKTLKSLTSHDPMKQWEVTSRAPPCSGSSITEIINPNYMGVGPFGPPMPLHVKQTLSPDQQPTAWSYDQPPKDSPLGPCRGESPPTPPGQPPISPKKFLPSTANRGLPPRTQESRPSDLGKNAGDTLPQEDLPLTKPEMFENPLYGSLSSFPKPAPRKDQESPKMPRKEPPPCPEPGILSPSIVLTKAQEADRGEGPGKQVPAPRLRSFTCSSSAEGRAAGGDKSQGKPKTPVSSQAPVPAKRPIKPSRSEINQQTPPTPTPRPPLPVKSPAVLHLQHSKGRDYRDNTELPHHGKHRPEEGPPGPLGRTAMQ

LNK (SH2B3) = molecular target: T7, LNK (SH2B3) (Homo sapiens, UniProt Q9UQQ2)
T7 construct: the DNA-tagged SH2 domain concentrations used in this study were <0.1 nM; made in house; host or cells: HEK293 (transient transfection, unpurified extract)

GRB7 = molecular target: T8, GRB7 (Homo sapiens, UniProt Q14451)
T8 construct: the DNA-tagged SH2 domain concentrations used in this study were <0.1 nM; made in house; host or cells: HEK293 (transient transfection; unpurified extract)

ABL2 = molecular target: T9, ABL2 (Homo sapiens, UniProt P42684)
T9 construct: the DNA-tagged SH2 domain concentrations used in this study were <0.1 nM; made in house; host or cells: HEK293 (transient transfection; unpurified extract)
T9 sequence (P42684 173-263 limits assumed): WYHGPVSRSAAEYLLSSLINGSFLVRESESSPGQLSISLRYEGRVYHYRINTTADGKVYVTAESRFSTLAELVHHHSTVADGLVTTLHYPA

PLCG1(SH2dom.N-term.) = molecular target: T10, PLCG1(SH2dom.N-term.) (Homo sapiens, UniProt P19174)
T10 construct: SH2dom.N-term. denotes SH2 domain closest to N-terminus of protein; made in house; host or cells: HEK293 (transient transfection, unpurified extract)
T10 sequence (P19174 550-657 limits assumed): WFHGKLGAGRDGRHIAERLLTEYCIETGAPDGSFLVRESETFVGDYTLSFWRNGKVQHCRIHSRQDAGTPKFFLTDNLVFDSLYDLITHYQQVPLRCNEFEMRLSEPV

FES = molecular target: T11, FES (Homo sapiens, UniProt P07332)
T11 construct: the DNA-tagged SH2 domain concentrations used in this study were <0.1 nM; made in house; host or cells: HEK293 (transient transfection; unpurified extract)
T11 sequence (P07332 460-549 limits assumed): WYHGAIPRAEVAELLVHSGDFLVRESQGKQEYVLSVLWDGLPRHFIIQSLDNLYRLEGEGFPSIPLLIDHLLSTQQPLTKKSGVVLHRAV

T7 sequence (Q9UQQ2 364-462 limits assumed): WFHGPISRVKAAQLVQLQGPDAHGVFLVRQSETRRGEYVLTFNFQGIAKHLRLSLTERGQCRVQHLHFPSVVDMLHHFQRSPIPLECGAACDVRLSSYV
T8 sequence (Q14451 431-527 limits assumed): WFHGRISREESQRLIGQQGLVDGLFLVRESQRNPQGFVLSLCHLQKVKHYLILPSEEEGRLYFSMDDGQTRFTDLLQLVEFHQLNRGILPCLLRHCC
T3 sequence (P46108 13-118 limits assumed): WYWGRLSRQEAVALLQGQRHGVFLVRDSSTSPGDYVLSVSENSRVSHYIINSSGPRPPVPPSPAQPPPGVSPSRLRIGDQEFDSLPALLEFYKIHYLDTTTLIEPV

CSCC[C@H](NC(=O)[C@@H](NC(=O)[C@H](CCC(=O)O)NC(=O)[C@H](Cc1ccc(OP(=O)(O)O)cc1)NC(=O)[C@H](CC(C)C)NC(=O)[C@@H]1CCCN1C(=O)[C@H](CC(=O)O)NC(=O)[C@@H]1CCCN1C(C)=O)C(C)C)C(=O)N[C@@H](CC(C)C)C(=O)N[C@@H](CCCCN)C(=O)N[C@@H](CS)C(=O)N[C@@H](Cc1c[nH]c2ccccc12)C(=O)N[C@@H](CC(=O)O)C(N)=O (Ac-PDPL[pY]EVMLKCWD-NH2)
Kd (GRB14): 298 ± 131 nM

CC[C@H](C)[C@H](NC(=O)[C@@H](NC(=O)[C@H](CC(C)C)NC(=O)[C@H](Cc1ccc(OP(=O)(O)O)cc1)NC(=O)[C@H](CCCNC(=N)N)NC(=O)[C@H](CCC(N)=O)NC(=O)[C@@H]1CCCN1C(=O)[C@H](CC(=O)O)NC(C)=O)C(C)C)C(=O)N[C@@H](CCC(N)=O)C(=O)NCC(=O)N[C@@H](CC(=O)O)C(=O)N[C@@H](CCC(=O)O)C(=O)N[C@@H](CC(=O)O)C(N)=O [Ac-DPQRpYLVIQGDED-NH2] (Ac-DPQR[pY]LVIQGDED-NH2)
Kd (PLCG2(SH2dom.N-term.)): 521 ± 25.4 nM

CC(=O)N[C@@H](CCC(=O)O)C(=O)N1CCC[C@H]1C(=O)N[C@@H](C)C(=O)N[C@@H](Cc1c[nH]cn1)C(=O)N[C@@H](C)C(=O)N[C@@H](Cc1ccc(OP(=O)(O)O)cc1)C(=O)N[C@@H](C)C(=O)N[C@@H](CCC(N)=O)C(=O)N1CCC[C@H]1C(=O)N[C@@H](CCC(N)=O)C(=O)N[C@H](C(=O)N[C@H](C(N)=O)[C@@H](C)O)[C@@H](C)O [Ac-EPAHApYAQPQTT-NH2] (Ac-EPAHA[pY]AQPQTT-NH2)
Kd (CRK): 1520 ± 695 nM

CC[C@H](C)[C@H](NC(C)=O)C(=O)N[C@@H](CO)C(=O)N[C@@H](C)C(=O)N[C@@H](CCSC)C(=O)N[C@@H](Cc1ccc(OP(=O)(O)O)cc1)C(=O)N[C@@H](CO)C(=O)N[C@@H](CO)C(=O)N[C@H](C(=O)N[C@@H](CCSC)C(=O)N[C@@H](CCCCN)C(N)=O)C(C)C [Ac-ISAMpYSSVMK-NH2] (Ac-ISAM[pY]SSVMK-NH2)
Kd (CSK): 48.3 ± 8.04 nM

CC(=O)N[C@@H](CC(N)=O)C(=O)N[C@@H](CC(N)=O)C(=O)N[C@H](C(=O)N[C@@H](C)C(=O)N[C@@H](Cc1ccc(OP(=O)(O)O)cc1)C(=O)N[C@@H](CO)C(=O)N[C@@H](Cc1ccc(O)cc1)C(=O)N[C@@H](CC(C)C)C(=O)N[C@@H](CC(C)C)C(=O)N[C@@H](CC(N)=O)C(=O)N[C@@H](CCCNC(=N)N)C(N)=O)C(C)C [Ac-NNVApYSYLLNR-NH2] (Ac-NNVA[pY]SYLLNR-NH2)
Kd (SHIP2): 3310 ± 622 nM | Kd (SHIP1): 241 ± 71.8 nM

CC(=O)N[C@@H](CC(N)=O)C(=O)N[C@H](C(=O)NCC(=O)N[C@@H](CC(=O)O)C(=O)N[C@@H](Cc1ccc(OP(=O)(O)O)cc1)C(=O)N[C@@H](Cc1ccc(O)cc1)C(=O)N[C@@H](CC(=O)O)C(=O)N[C@@H](CC(C)C)C(=O)N[C@@H](Cc1ccc(O)cc1)C(=O)NCC(N)=O)[C@@H](C)O [Ac-NTGDpYYDLYG-NH2] (Ac-NTGD[pY]YDLYG-NH2)
Kd (LNK (SH2B3)): 3220 ± 595 nM

CC(=O)N1CCC[C@H]1C(=O)N[C@@H](CCC(=O)O)C(=O)N[C@@H](Cc1ccc(OP(=O)(O)O)cc1)C(=O)N[C@H](C(=O)N[C@@H](CC(N)=O)C(=O)N[C@@H](CCC(N)=O)C(N)=O)C(C)C [Ac-PEpYVNQ-NH2] (Ac-PE[pY]VNQ-NH2)
Kd (GRB7): 4470 ± 557 nM

CC[C@H](C)[C@H](NC(=O)[C@@H]1CCCN1C(=O)[C@H](CO)NC(=O)[C@H](CO)NC(C)=O)C(=O)N[C@@H](Cc1ccc(OP(=O)(O)O)cc1)C(=O)N[C@@H](CCC(=O)O)C(=O)N[C@@H](CC(=O)O)C(=O)N[C@@H](C)C(=O)N[C@@H](C)C(N)=O [Ac-SSPIpYEDAA-NH2] (Ac-SSPI[pY]EDAA-NH2)
Kd (ABL2): 6200 ± 584 nM

CSCC[C@H](NC(=O)[C@H](CO)NC(=O)[C@H](CC(C)C)NC(=O)[C@H](CC(=O)O)NC(=O)[C@H](CC(C)C)NC(=O)[C@H](Cc1ccc(OP(=O)(O)O)cc1)NC(=O)[C@H](CCC(=O)O)NC(=O)[C@H](CCC(N)=O)NC(=O)[C@H](CC(N)=O)NC(=O)[C@H](CO)NC(=O)[C@@H](NC(C)=O)[C@@H](C)O)C(N)=O [Ac-TSNQEpYLDLSM-NH2] (Ac-TSNQE[pY]LDLSM-NH2)
Kd (PLCG1(SH2dom.N-term.)): 116 ± 6.69 nM

CC(=O)N[C@H](C(=O)N[C@@H](Cc1ccc(OP(=O)(O)O)cc1)C(=O)N[C@@H](CCC(=O)O)C(=O)N1CCC[C@H]1C(=O)N[C@H](C(=O)N[C@@H](CO)C(=O)N[C@@H](Cc1ccc(O)cc1)C(N)=O)C(C)C)C(C)C [Ac-VpYEPVSY-NH2] (Ac-V[pY]EPVSY-NH2)
Kd (FES): 711 ± 170 nM
